Reference: patent US20100261767A1, “OXADIAZOLE DERIVATIVES FOR USE AS S1P1 AGONISTS IN THE TREATMENT OF AUTOIMMUNE AND INFLAMMATORY DISORDERS” (priority 2007, published 2010)
Where a name gives a salt, the structure may show the parent alone.

Experiments:
human S1P1 receptor = biological target: T1, human S1P1 receptor (Homo sapiens, UniProt P21453); assay: S1P1 GTPγS Assay; assay type: biochemical; conditions: human S1P1 rat hepatoma membranes, agonist
T1 construct: expressed in transfected cells; membranes
T1 sequence (P21453 whole entry): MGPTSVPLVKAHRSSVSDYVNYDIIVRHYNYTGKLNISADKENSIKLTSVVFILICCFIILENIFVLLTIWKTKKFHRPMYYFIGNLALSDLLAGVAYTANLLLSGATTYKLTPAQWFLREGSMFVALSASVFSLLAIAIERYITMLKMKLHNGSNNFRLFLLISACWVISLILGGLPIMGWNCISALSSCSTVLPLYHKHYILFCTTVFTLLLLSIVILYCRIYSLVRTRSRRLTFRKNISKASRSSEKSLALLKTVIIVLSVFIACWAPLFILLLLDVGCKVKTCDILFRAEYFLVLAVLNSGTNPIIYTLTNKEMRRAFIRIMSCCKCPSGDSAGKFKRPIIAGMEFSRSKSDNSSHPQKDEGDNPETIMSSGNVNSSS
Description: Membrane Preparation for S1P1 GTPγS Assay
For membrane preparations all steps were performed at 4° C. Rat hepatoma cells stably expressing the human S1P1 receptor or Rat Basophilic Leukaemia cells (RBL) stably expressing human S1P3 receptor were grown to 80% confluency before being harvested into 10 ml Phospho-Buffered Saline (PBS) and centrifuged at 1200 rpm for 5 minutes. After removal of the supernatant, the pellet was re-suspended and cells were homogenised within a glass Waring blender for 2 bursts of 15 secs in 200 mls of buffer (50 mM HEPES, 1 mM leupeptin, 25 μg/ml bacitracin, 1 mM EDTA, 1 mM PMSF, 2 μM pepstatin A). The blender was plunged into ice for 5 mins after the first burst and 10-40 mins after the final burst to allow foam to dissipate. […]
After 30 minutes pre-coupling on ice the bead and membrane suspension was dispensed into a white Greiner polypropylene LV384-well plate (5 μl/well), containing 0.1 μl of the compound. […] The final assay cocktail (10.1 μl) was then centrifuged at 1000 rpm for 5 minutes then read immediately on a Viewlux reader. […]
(§1) After 30 minutes precoupling on ice, the bead and membrane suspension was dispensed into white Greiner polypropylene LV 384-well plates (5 μl/well), containing 0.1 μl of compound. […] The final assay cocktail (10.1 μl) was then sealed, spun on a centrifuge, then read immediately on a Viewlux instrument.

human S1P3 receptor = biological target: T2, human S1P3 receptor (Homo sapiens, UniProt Q99500); assay: S1P3 GTPγS Assay; assay type: biochemical; conditions: S1P3 RBL-2H3 membranes, agonist
T2 construct: expressed in transfected cells; membranes
T2 sequence (Q99500 whole entry): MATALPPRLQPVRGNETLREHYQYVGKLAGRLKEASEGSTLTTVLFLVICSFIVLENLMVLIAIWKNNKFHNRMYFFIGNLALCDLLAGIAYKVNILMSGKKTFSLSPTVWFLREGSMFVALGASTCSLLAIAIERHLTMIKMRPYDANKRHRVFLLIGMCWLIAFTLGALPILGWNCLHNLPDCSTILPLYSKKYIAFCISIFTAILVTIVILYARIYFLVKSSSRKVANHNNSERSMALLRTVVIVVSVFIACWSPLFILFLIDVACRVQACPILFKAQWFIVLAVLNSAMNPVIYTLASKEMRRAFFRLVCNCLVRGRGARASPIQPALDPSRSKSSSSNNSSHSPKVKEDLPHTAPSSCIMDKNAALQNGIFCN
Description: For membrane preparations all steps were performed at 4° C. Rat hepatoma cells stably expressing the human S1P1 receptor or Rat Basophilic Leukaemia cells (RBL) stably expressing human S1P3 receptor were grown to 80% confluency before being harvested into 10 ml Phospho-Buffered Saline (PBS) and centrifuged at 1200 rpm for 5 minutes. After removal of the supernatant, the pellet was re-suspended and cells were homogenised within a glass Waring blender for 2 bursts of 15 secs in 200 mls of buffer (50 mM HEPES, 1 mM leupeptin, 25 μg/ml bacitracin, 1 mM EDTA, 1 mM PMSF, 2 μM pepstatin A). The blender was plunged into ice for 5 mins after the first burst and 10-40 mins after the final burst to allow foam to dissipate. The material was then spun at 500 g for 20 mins and the supernatant spun for 36 mins at 48,000 g. The pellet was resuspended in the same buffer as above but without PMSF and pepstatin A. The material was then forced through a 0.6 mm needle, made up to the required volume, (usually ×4 the volume of the original cell pellet), aliquoted and stored frozen at −80° C.
S1P3 membranes from rat basophilic leukaemia cells (RBL-2H3) (1.5 μg/well) were adhered to WGA-coated SPA beads (0.125 mg/well) in assay buffer (HEPES 20 mM, MgCl2 3 mM, NaCl 100 mM and pH adjusted to 7.4 using KOH 5M), GDP 10 μM FAC and saponin 90 μg/ml FAC was also added).
After 30 minutes pre-coupling on ice the bead and membrane suspension was dispensed into a white Greiner polypropylene LV384-well plate (5 μl/well), containing 0.1 μl of the compound. 5 μl/well [^35S]-GTPγS (0.5 nM final radioligand conc) made up in assay buffer was then added to agonist plates. The final assay cocktail (10.1 μl) was centrifuged at 1000 rpm for 5 minutes then read immediately on a Viewlux reader. […]
as §1

CC(C)Oc1ccc(-c2nc(-c3cccc4c3CNC4)no2)cc1Cl [Example 2, 4-(5-{3-Chloro-4-[(1-methylethyl)oxy]phenyl}-1,2,4-oxadiazol-3-yl)-2,3-dihydro-1H-isoindole]
EC50 (human S1P1 receptor): < 0.01 µM | EC50 (human S1P3 receptor): > 10 µM

CC(C)Oc1ccc(-c2nc(-c3cccc4c3CNC4)no2)cc1C#N [Example 1, 5-[3-(2,3-Dihydro-1H-isoindol-4-yl)-1,2,4-oxadiazol-5-yl]-2-[(1-methylethyl)oxy]benzonitrile hydrochloride]
EC50 (human S1P1 receptor): < 0.01 µM | EC50 (human S1P3 receptor): > 10 µM

CC(C)Oc1ccc(-c2nc(-c3cccc4c3CN(CCCC(=O)O)C4)no2)cc1C#N [Example 5, 4-[4-(5-{3-cyano-4-[(1-methylethyl)oxy]phenyl}-1,2,4-oxadiazol-3-yl)-1,3-dihydro-2H-isoindol-2-yl]butanoic acid]
EC50 (human S1P3 receptor): > 10 µM
